These results are taken from patent EP0666077A1, “ANTI-MRSA COMPOSITION” (MEIJI SEIKA KABUSHIKI KAISHA, priority 1993, dated 1995).

For one experiment, the system named is S. aureus (MRSA) -385. The experiment can be described thus: Anti-bacterial activity test 1: minimum growth inhibiting concentration (MIC). The format is cell-based. The note with it: Staphylococcus aureus, strain -385 (PRC series), read-out: Anti-bacterial activity against MRSA MIC. How it is done: (§1) Minimum growth inhibiting concentration (MIC) of the compound represented by the general formula (I) was determined against some typical MRSA strains.

Another experiment concerns S. aureus (MRSA) -400. The description is as above. The note with it: Staphylococcus aureus, strain -400 (PRC series), read-out: Anti-bacterial activity against MRSA MIC. The format is cell-based. How it is done: as §1
The next experiment relates to S. aureus (MRSA) -390. The description is as above. The format is cell-based. Particulars: Staphylococcus aureus, strain -390 (PRC series), read-out: Anti-bacterial activity against MRSA MIC. Here is the method: as §1
The test system of another experiment is S. aureus (MRSA) -395. The description is as above. The format is cell-based. The note with it: Staphylococcus aureus, strain -395 (PRC series), read-out: Anti-bacterial activity against MRSA MIC. Here is the method:
as §1

In another experiment the test system is S. aureus (MRSA) PRC-376. The experiment is described as above. The format is cell-based. The note with it: Staphylococcus aureus, strain PRC-376, read-out: Anti-bacterial activity against MRSA MIC. Here is the method:
as §1

For another experiment, the system named is S. aureus (MRSA) -389. The experiment is described as above. The format is cell-based. Particulars: Staphylococcus aureus, strain -389 (PRC series), read-out: Anti-bacterial activity against MRSA MIC. How it is done:
as §1

A further experiment concerns S. aureus (MRSA) -381. The description is as above. The format is cell-based. The note with it: Staphylococcus aureus, strain -381 (PRC series), read-out: Anti-bacterial activity against MRSA MIC. How it is done: as §1
The test system of experiment [1] is methicillin resistant Staphylococcus aureus (TY-5548, higher resistant bacterium). The experiment in a line: Anti-bacterial activity test 4: propagation under cup with dust adsorbing oil on agar plate. The format is cell-based. The note with it: dust adsorbing oil incorporated with 0.1% of compound; 100 µl in cup; 4°C overnight, then 37°C for 24 hours. Here is the method: Anti-MRSA activity was afforded to a dust adsorbing oil for a dust control mop as described below.
Only non-volatile ingredients were recovered from a dust adsorbing oil for a mop by spraying (manufactured by Yamazaki Sangyo), and incorporated with 0.1% of Compound (V).
A 200 µl of a suspension containing methicillin resistant Staphylococcus aureus (TY-5548, higher resistant bacterium) in a level of 1 x 10⁵ - 10⁴ cells/ml was smeared on a plate count agar, on which stainless steel cups having a diameter of 12 mm were placed to add 100 µl of the oil solution prepared above. The plate thus having inoculated the bacterium was left standing at 4°C overnight and then cultured at 37°C for 24 hours. The propagation of the bacterium under the cup was evaluated.

For experiment [2], the system named is methicillin (DMPPC) resistant Staphylococcus aureus TY-5548. The experiment can be described thus: Anti-bacterial activity test 2: viable cell count on processed cotton cloth. The format is cell-based. Particulars: stated for the test as a whole (TY-5548 and TY-5552). Here is the method: A cotton cloth was subjected to anti-bacterial processing with the compound of the general formula (I). The processing was carried out by applying a solution containing 0.05% of the compound of the general formula (I) and 1% of an organic silicone (fiber finish, Miki Riken) on the cotton cloth with the padding method. A cotton cloth (30 cm x 40 cm) was padded so that the pick-up was 70%, dried with hot air at 110°C for 3 minutes and further cured at 170°C for 1 minute. The anti-bacterial effect of the cotton cloth subjected to the anti-bacterial processing was evaluated with methicillin (DMPPC) resistant Staphylococcus aureus by the following method. The strains were selected on the basis of their resistances, and TY-5548 was selected as a higher resistant strain and TY-5552 as a lower resistant strain.
A 0.2 g sample of the cotton cloth was weighed, placed in a screw capped 30 ml vial and sterilized under pressure. The test strains had been pre-cultured and diluted with nutrient broth for inoculation to 5 - 30 x 10⁵ cells/ml. This culture medium was uniformly inoculated at an amount of 200 µl with a micropipette to the sample cloth, which was then incubated in an incubator at 37°C for 18 hours. […] The colonies grown were counted to calculate the viable cells in the sample piece.

Experiment [3] relates to TY-5548, higher resistant bacterium. The experiment in a line: Anti-bacterial activity test 5: viable cell count on paint film. The format is cell-based, Staphylococcus aureus. The note with it: paint film with 0.1% of compound. The text has this: The compound of the general formula (I) was blended with a paint on the assumption that the paint is used around the medical facilities like in the case of Anti-bacterial activity test 3.
With an oil paint (manufactured by Shinto Toryo) 0.1% of the compound of the general formula (I) was mixed, and an appropriate dilution with thinner was spread over a stainless steel plate having a size of 3 cm x 3 cm and air-dried. The sample on which the film had been formed was sterilized with an alcohol and dried. The sample plate was placed in a glass dish, inoculated with 200 µl of the inoculation medium in Anti-bacterial activity test 3 (TY-5548, higher resistant bacterium) over the surface of the film and incubated at 37°C for 18 hours. After the incubation, 20 ml of a sterile physiological saline buffer was added to the medium to disperse the viable cells into the medium, and then the viable cells on the test piece were calculated in the same manner as in Anti-bacterial activity test 2.

Values after ≈ are worked out from the molar mass of the structure shown. Where only a bound is given, the exact number is not on record here.

As to `Clc1ccccc1C(Cn1ccnc1)OCc1ccccc1` (centres unmarked) [o-Cl, H, H, H, 1-[2-benzyloxy-2-(2-chlorophenyl)-ethyl]imidazole], the MIC worked out at 100 mg/L (≈ 320 µM) in the experiment on S. aureus (MRSA) -385; 50 mg/L (≈ 160 µM) in the experiment on S. aureus (MRSA) -400; 100 mg/L (≈ 320 µM) with S. aureus (MRSA) -390; 100 mg/L (≈ 320 µM) in the experiment on S. aureus (MRSA) -395; 100 mg/L (≈ 320 µM) with S. aureus (MRSA) PRC-376; 100 mg/L (≈ 320 µM) with S. aureus (MRSA) -389. Further, the MIC in the experiment on S. aureus (MRSA) -381 is 50 mg/L (≈ 160 µM).
Consider `Clc1ccccc1COC(Cn1ccnc1)c1ccccc1Cl` (centres unmarked) [o-Cl, H, o-Cl, H, 1-[2-(2-chlorobenzyloxy)-2-(2-chlorophenyl)-ethyl]imidazole], for which the minimal inhibitory concentration (MIC) is 25 mg/L (≈ 72 µM) in the experiment with S. aureus (MRSA) -385; 25 mg/L (≈ 72 µM) in the experiment on S. aureus (MRSA) -400; 25 mg/L (≈ 72 µM) in the experiment with S. aureus (MRSA) -390; 25 mg/L (≈ 72 µM) in the experiment with S. aureus (MRSA) -395; 25 mg/L (≈ 72 µM) in the experiment on S. aureus (MRSA) PRC-376; 50 mg/L (≈ 144 µM) in the experiment with S. aureus (MRSA) -389. The MIC in the experiment with S. aureus (MRSA) -381 is 25 mg/L (≈ 72 µM).
`Clc1ccc(COC(Cn2ccnc2)c2ccccc2Cl)cc1` (centres unmarked) [o-Cl, H, p-Cl, H, 1-[2-(4-chlorobenzyloxy)-2-(2-chlorophenyl)-ethyl]imidazole]: the “propagation of the bacterium under the cup” value in experiment [1] is “no propagation was observed”. For the same molecule, the “cell reducing rate of the inoculated cells” value in [2] and in [3] was ≥ 99.9% each time. For the same molecule, the minimum inhibitory concentration (MIC) in the experiment with S. aureus (MRSA) -385 was found to be 25 mg/L (≈ 72 µM); in the experiment on S. aureus (MRSA) -400 it was 12.5 mg/L (≈ 36 µM); in the experiment with S. aureus (MRSA) -390 it was 25 mg/L (≈ 72 µM); in the experiment on S. aureus (MRSA) -395 it was 25 mg/L (≈ 72 µM); in the experiment on S. aureus (MRSA) PRC-376, 25 mg/L (≈ 72 µM); with S. aureus (MRSA) -389 it was 25 mg/L (≈ 72 µM). Further, the MIC in the experiment on S. aureus (MRSA) -381 was 12.5 mg/L (≈ 36 µM).
As for `Clc1ccc(C(Cn2ccnc2)OCc2ccccc2Cl)cc1` (centres unmarked) [p-Cl, H, o-Cl, H, 1-[2-(2-chlorobenzyloxy)-2-(4-chlorophenyl)-ethyl]imidazole], the MIC with S. aureus (MRSA) -385 worked out at 50 mg/L (≈ 144 µM); in the experiment with S. aureus (MRSA) -400 it was 25 mg/L (≈ 72 µM); with S. aureus (MRSA) -390, 50 mg/L (≈ 144 µM); in the experiment with S. aureus (MRSA) -395, 50 mg/L (≈ 144 µM); with S. aureus (MRSA) PRC-376, 50 mg/L (≈ 144 µM); in the experiment on S. aureus (MRSA) -389, 50 mg/L (≈ 144 µM). Further, the MIC in the experiment on S. aureus (MRSA) -381 was determined as 25 mg/L (≈ 72 µM).
`Clc1ccc(COC(Cn2ccnc2)c2ccc(Cl)cc2)cc1` (centres unmarked) [p-Cl, H, p-Cl, H, 1-[2-(4-chlorobenzyloxy)-2-(4-chlorophenyl)-ethyl]imidazole]: the MIC in the experiment with S. aureus (MRSA) -385 is 50 mg/L (≈ 144 µM); with S. aureus (MRSA) -400 it was 25 mg/L (≈ 72 µM); in the experiment on S. aureus (MRSA) -390 it was 50 mg/L (≈ 144 µM); with S. aureus (MRSA) -395 it was 50 mg/L (≈ 144 µM); with S. aureus (MRSA) PRC-376 it was 50 mg/L (≈ 144 µM); in the experiment with S. aureus (MRSA) -389, 50 mg/L (≈ 144 µM). In addition, in the experiment with S. aureus (MRSA) -381, the MIC stood at 25 mg/L (≈ 72 µM).

The MIC is the smallest concentration in the dilution series that meets the test's criterion for growth inhibition.
